The term IC50 denotes the concentration that inhibits the measured activity by half. Low values mean greater potency, high ones weaker potency.

Bounds are passed on as bounds.

Series [1] has as its system Plasmodium falciparum. In words: Antimalarial activity against chloroquine-sensitive Plasmodium falciparum 3D7 ring-stage infected in human erythrocytes after 48 hrs by [3H]hypoxanthine assay. It is filed as functional, organism-based.
For series [2], the system named is HEK293. In words: Cytotoxicity against HEK293 cells after 72 hrs by Alamar Blue assay. As to conditions: Homo sapiens, HEK293, 72 h. It is filed as cell-based.
Series [3] can be described thus: Selectivity index, ratio of IC50 for chloroquine-sensitive Plasmodium falciparum 3D7 to IC50 for HEK293 cells.
The test system of series [4] is HepG2. The experiment in a line: Cytotoxicity against human HepG2 cells after 72 hrs by Alamar Blue assay. It is filed as cell-based. The note with it: HepG2, 72 h. In general terms: Resazurin is reduced to fluorescent resorufin, in cell work by metabolically active cells.
The nature of series [5]: Cytotoxicity against human HepG2 cells assay at 40 uM after 72 hrs by Alamar Blue assay. Type of series: cell-based. The note with it: read-out: INH.
Series [6] can be described thus: Selectivity index, ratio of IC50 for chloroquine-sensitive Plasmodium falciparum 3D7 to IC50 for human HepG2 cells.
Series [7] can be described thus: Cytotoxicity against HEK293 cells assay at 40 uM after 72 hrs by Alamar Blue assay. It is filed as cell-based. As to conditions: human, read-out: INH.

As for `COC1C(Br)=CO[C@@]2(C=C1Br)ON=C(C(=O)NCCCOc1c(Br)cc(CC[N+](C)(C)C)cc1Br)[C@@H]2O.O=C([O-])C(F)(F)F` (some centres undefined) [PSAMMAPLYSIN H], the figures for the IC50 in series [1], in series [2] and in series [4] were 410 nM, greater than 40 µM and greater than 40 µM, respectively. The “Ratio IC50” value in series [3] and in series [6] was greater than 97 throughout. The cytotoxicity at 72 h, 40 µM was 33% in series [5] and 35% in series [7].

In the case of `COC1C(Br)=CO[C@@]2(C=C1Br)ON=C(C(=O)NCCCOc1c(Br)cc(CCN(C)C(N)=O)cc1Br)[C@@H]2O` (some centres undefined) [PSAMMAPLYSINS G], the IC50 came out at 5220 nM in series [1], 18.7 µM in series [2] and 17.4 µM in series [4]. Also, the “Ratio IC50” value in series [3] and in series [6] was 3 throughout.

Turning to `CNCCc1cc(Br)c(OCCCNC(=O)C2=NO[C@@]3(C=C(Br)C(OC)C(Br)=CO3)[C@H]2O)c(Br)c1` (some centres undefined) [PSAMMAPLYSINS F], the IC50 was 1920 nM in series [1], 10.9 µM in series [2] and 3.7 µM in series [4]. The Ratio IC50 in series [3] is 5; in series [6] it was 2.

Turning to `CCN(CC)CCCC(C)Nc1ccnc2cc(Cl)ccc12` (centres undefined) [CHLOROQUINE], the IC50 in series [2] turned out to be 48 µM; in series [4], 12.9 µM.
